Data reported in ChEMBL document CHEMBL1201862, “PubChem BioAssay data set” (2004).
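Cultured in 96-well plates, cells were exposed to test compound for 48 hours across five concentrations. The concentration for 50% growth inhibition is given as GI50.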 The source made the active and inactive calls. No stated cut-off is given here; in the data, active = GI50 up to about 1.1 µM and inactive = higher.

How the values were obtained:
Assay in all cases: NCI anticancer screen, dose series, 48 h
786-0 = test system: 786-0
A549 = test system: A549
ACHN = test system: ACHN
CAKI-1 = test system: CAKI-1
CCRF-CEM = test system: CCRF-CEM
COLO 205 = test system: COLO 205
DU-145 = test system: DU-145
EKVX = test system: EKVX
HCT-116 = test system: HCT-116
HCT-15 = test system: HCT-15
HL-60 = test system: HL-60
HOP-62 = test system: HOP-62
HOP-92 = test system: HOP-92
HT-29 = test system: HT-29
Hs-578T = test system: Hs-578T
IGROV-1 = test system: IGROV-1
K562 = test system: K562
KM12 = test system: KM12
LOX IMVI = test system: LOX IMVI
M14 = test system: M14
MCF7 = test system: MCF7
MDA-MB-231 = test system: MDA-MB-231
MDA-MB-435 = test system: MDA-MB-435
MDA-N = test system: MDA-N
MOLT-4 = test system: MOLT-4
Malme-3M = test system: Malme-3M
NCI-H226 = test system: NCI-H226
NCI-H23 = test system: NCI-H23
NCI-H460 = test system: NCI-H460
NCI-H522 = test system: NCI-H522
NCI/ADR-RES = test system: NCI/ADR-RES
OVCAR-3 = test system: OVCAR-3
OVCAR-4 = test system: OVCAR-4
OVCAR-5 = test system: OVCAR-5
OVCAR-8 = test system: OVCAR-8
PC-3 = test system: PC-3
RPMI-8226 = test system: RPMI-8226
RXF 393 = test system: RXF 393
SF-268 = test system: SF-268
SF-295 = test system: SF-295
SF-539 = test system: SF-539
SK-MEL-28 = test system: SK-MEL-28
SK-MEL-2 = test system: SK-MEL-2
SK-MEL-5 = test system: SK-MEL-5
SN12C = test system: SN12C
SNB-19 = test system: SNB-19
SNB-75 = test system: SNB-75
SR = test system: SR
SW-620 = test system: SW-620
T47D = test system: T47D
TK-10 = test system: TK-10
U-251 = test system: U-251
UACC-257 = test system: UACC-257
UACC-62 = test system: UACC-62
UO-31 = test system: UO-31
A498 = test system: A498
BT-549 = test system: BT-549
SK-OV-3 = test system: SK-OV-3

CCC1=CCC23C(=O)C=CC(=O)C2(C1)C(=O)c1cccc(OC)c1C3=O (centres undefined)
GI50 (786-0): 11.9 µM (inactive) | GI50 (A549): 23.8 µM (inactive) | GI50 (ACHN): 14.3 µM (inactive) | GI50 (CAKI-1): 13.1 µM (inactive) | GI50 (CCRF-CEM): 3.26 µM (inactive) | GI50 (COLO 205): 14.9 µM (inactive) | GI50 (DU-145): 16.9 µM (inactive) | GI50 (EKVX): 13.2 µM (inactive) | GI50 (HCT-116): 14.6 µM (inactive) | GI50 (HCT-15): 18 µM | GI50 (HL-60): 2.73 µM (inactive) | GI50 (HOP-62): 22.7 µM (inactive) | GI50 (HOP-92): 15.1 µM (inactive) | GI50 (HT-29): 20.3 µM (inactive) | GI50 (Hs-578T): 20.2 µM (inactive) | GI50 (IGROV-1): 13 µM (inactive) | GI50 (K562): 12.9 µM (inactive) | GI50 (KM12): 20.9 µM (inactive) | GI50 (LOX IMVI): 15.1 µM (inactive) | GI50 (M14): 16 µM (inactive) | GI50 (MCF7): 14.3 µM (inactive) | GI50 (MDA-MB-231): 15.1 µM (inactive) | GI50 (MDA-MB-435): 17.1 µM (inactive) | GI50 (MDA-N): 16.5 µM (inactive) | GI50 (MOLT-4): 3.87 µM (inactive) | GI50 (Malme-3M): 15.9 µM (inactive) | GI50 (NCI-H226): 22.1 µM (inactive) | GI50 (NCI-H23): 21.1 µM (inactive) | GI50 (NCI-H460): 28.2 µM (inactive) | GI50 (NCI-H522): 31.8 µM (inactive) | GI50 (NCI/ADR-RES): 20.2 µM (inactive) | GI50 (OVCAR-3): 10.1 µM (inactive) | GI50 (OVCAR-4): 12.7 µM (inactive) | GI50 (OVCAR-5): 16.2 µM (inactive) | GI50 (OVCAR-8): 15.2 µM (inactive) | GI50 (PC-3): 14.9 µM (inactive) | GI50 (RPMI-8226): 4.41 µM (inactive) | GI50 (RXF 393): 6.38 µM (inactive) | GI50 (SF-268): 17.6 µM (inactive) | GI50 (SF-295): 24.3 µM (inactive) | GI50 (SF-539): 18.4 µM (inactive) | GI50 (SK-MEL-28): 18.2 µM (inactive) | GI50 (SK-MEL-2): 22.7 µM (inactive) | GI50 (SK-MEL-5): 16.8 µM (inactive) | GI50 (SN12C): 18.3 µM (inactive) | GI50 (SNB-19): 23.8 µM (inactive) | GI50 (SNB-75): 15.6 µM (inactive) | GI50 (SR): 9.82 µM (inactive) | GI50 (SW-620): 15.5 µM (inactive) | GI50 (T47D): 0.409 µM (active) | GI50 (TK-10): 19.1 µM (inactive) | GI50 (U-251): 23 µM (inactive) | GI50 (UACC-257): 16.3 µM (inactive) | GI50 (UACC-62): 15.8 µM (inactive) | GI50 (UO-31): 10.8 µM (inactive)

COc1cc2c(cc1O)-c1c(cnn1-c1ccc([N+](=O)[O-])cc1)CCC2
GI50 (786-0): 12.9 µM (inactive) | GI50 (A498): 23 µM (inactive) | GI50 (A549): 12.7 µM (inactive) | GI50 (ACHN): 1.82 µM (inactive) | GI50 (BT-549): 21.6 µM (inactive) | GI50 (CAKI-1): 10.8 µM (inactive) | GI50 (CCRF-CEM): 2.94 µM (inactive) | GI50 (COLO 205): 20.3 µM (inactive) | GI50 (DU-145): 14.8 µM (inactive) | GI50 (EKVX): 28.1 µM (inactive) | GI50 (HCT-116): 18.3 µM (inactive) | GI50 (HCT-15): 14 µM | GI50 (HOP-62): 21.9 µM (inactive) | GI50 (HOP-92): 3.75 µM (inactive) | GI50 (HT-29): 16.4 µM (inactive) | GI50 (Hs-578T): 19.7 µM (inactive) | GI50 (IGROV-1): 4.78 µM (inactive) | GI50 (K562): 32.9 µM (inactive) | GI50 (KM12): 12.6 µM (inactive) | GI50 (LOX IMVI): 12.6 µM (inactive) | GI50 (M14): 16.6 µM (inactive) | GI50 (MCF7): 26.8 µM (inactive) | GI50 (MDA-MB-231): 12 µM (inactive) | GI50 (MDA-MB-435): 17.4 µM (inactive) | GI50 (MOLT-4): 1.02 µM (active) | GI50 (Malme-3M): 5.82 µM (inactive) | GI50 (NCI-H226): 15.7 µM (inactive) | GI50 (NCI-H23): 13.8 µM (inactive) | GI50 (NCI-H460): 10.3 µM (inactive) | GI50 (NCI-H522): 11.6 µM (inactive) | GI50 (NCI/ADR-RES): 14.4 µM (inactive) | GI50 (OVCAR-3): 16.7 µM (inactive) | GI50 (OVCAR-4): 19.1 µM (inactive) | GI50 (OVCAR-5): 22.4 µM (inactive) | GI50 (OVCAR-8): 19.7 µM (inactive) | GI50 (PC-3): 10.8 µM (inactive) | GI50 (RPMI-8226): 4.76 µM (inactive) | GI50 (RXF 393): 50.8 µM (inactive) | GI50 (SF-268): 8.95 µM (inactive) | GI50 (SF-295): 10.9 µM (inactive) | GI50 (SF-539): 11.1 µM (inactive) | GI50 (SK-MEL-28): 20.4 µM (inactive) | GI50 (SK-MEL-2): 17.4 µM (inactive) | GI50 (SK-MEL-5): 13.4 µM (inactive) | GI50 (SK-OV-3): 44.3 µM (inactive) | GI50 (SN12C): 2.86 µM (inactive) | GI50 (SNB-19): 27.7 µM (inactive) | GI50 (SNB-75): 22.9 µM (inactive) | GI50 (SW-620): 23.3 µM (inactive) | GI50 (T47D): 19.8 µM (inactive) | GI50 (TK-10): 8.83 µM (inactive) | GI50 (U-251): 11.7 µM (inactive) | GI50 (UACC-257): 15.5 µM (inactive) | GI50 (UACC-62): 1.79 µM (inactive)
